Results as given in DBAASP.
In brackets after ≈: the same amount, converted by molar mass.

What was measured:
Assay in all cases: ≥ marks a high value that may be exact or a test limit, other limits are often not marked, values filed in µg/mL are converted to µM
[1] = tested on: Bacillus subtilis KCTC 3068
[2] = tested on: Salmonella typhimurium KCTC 1926
[3] = tested on: Enterococcus faecalis VR
[4] = tested on: Pseudomonas aeruginosa KCTC 1637
[5] = tested on: Staphylococcus epidermidis KCTC 1917
[6] = tested on: Enterococcus faecium VR
[7] = tested on: Escherichia coli KCTC 1682
[8] = tested on: Staphylococcus aureus MR
[9] = tested on: Staphylococcus aureus KCTC 1621
[10] = tested on: Enterococcus faecium
[11] = tested on: Enterococcus faecalis
[12] = tested on: Klebsiella pneumoniae ATCC BAA-2146
[13] = tested on: Klebsiella pneumoniae ATCC 13883
[14] = tested on: Acinetobacter baumannii
[15] = tested on: Klebsiella pneumoniae
[16] = tested on: Candida albicans ATCC 90028
[17] = tested on: Pseudomonas aeruginosa ATCC 27853
[18] = tested on: Klebsiella pneumoniae ATCC 700603
[19] = tested on: Escherichia coli ATCC 25922
[20] = tested on: Bacillus subtilis ATCC 6051
[21] = tested on: Staphylococcus aureus ATCC 43300
[22] = tested on: Pseudomonas aeruginosa
[23] = tested on: Cryptococcus neoformans ATCC 208821
[24] = tested on: Acinetobacter baumannii ATCC 19606

Row | Structure (SMILES) | MIC [1] [µM] | MIC [2] [µM] | MIC [3] [µM] | MIC [4] [µM] | MIC [5] [µM] | MIC [6] [µM] | MIC [7] [µM] | MIC [8] [µM] | MIC [9] [µM] | MIC [10] [µM] | MIC [11] [µM] | MIC [12] [µM] | MIC [13] [µM] | MIC [14] [µM] | MIC [15] [µM] | MIC [16] [µM] | MIC [17] [µM] | MIC [18] [µM] | MIC [19] [µM] | MIC [20] [µM] | also measured
1 | CC[C@H](C)[C@H](NC(=O)[C@H](CS)NC(=O)[C@H](CC(N)=O)NC(=O)[C@H](C)NC(=O)[C@H](C)N)C(=O)N[C@H](C(=O)N[C@@H](CC(C)C)C(=O)NCC(=O)N[C@@H](CCCCN)C(=O)N[C@@H](C)C(N)=O)[C@@H](C)O [AANCITLGKA] | 30 (≈ 28.8 µg/mL) | 30 (≈ 28.8 µg/mL) | 30 (≈ 28.8 µg/mL) | 30 (≈ 28.8 µg/mL) | 30 (≈ 28.8 µg/mL) | 30 (≈ 28.8 µg/mL) | 30 (≈ 28.8 µg/mL) | 30 (≈ 28.8 µg/mL) | 30 (≈ 28.8 µg/mL) | 30 (≈ 28.8 µg/mL) | 30 (≈ 28.8 µg/mL) |  |  |  |  |  |  |  |  |  | 
2 | CC[C@H](C)[C@H](NC(=O)[C@H](C)N)C(=O)N[C@@H](CCCN=C(N)N)C(=O)N[C@@H](CS)C(=O)N[C@@H](CC(C)C)C(=O)N[C@@H](C)C(=O)N[C@@H](CCCCN)C(=O)N[C@@H](CCCN=C(N)N)C(=O)N[C@@H](CCCN=C(N)N)C(=O)N[C@@H](CCCCN)C(N)=O [AIRCLAKRRK] | 7.5 (≈ 9.1 µg/mL) | 7.5 (≈ 9.1 µg/mL) | 30 (≈ 36.4 µg/mL) | 7.5 (≈ 9.1 µg/mL) | 7.5 (≈ 9.1 µg/mL) | 15 (≈ 18.2 µg/mL) | 30 (≈ 36.4 µg/mL) | 7.5 (≈ 9.1 µg/mL) | 7.5 (≈ 9.1 µg/mL) | 3.8 (≈ 4.61 µg/mL) | 30 (≈ 36.4 µg/mL) |  |  |  |  |  |  |  |  |  | 
3 | CC[C@H](C)[C@@H]1NC(=O)CNC(=O)[C@H](CCCN=C(N)N)NC(=O)[C@H](Cc2ccc(O)cc2)NC(=O)[C@@H]2CSSC[C@H](NC1=O)C(=O)N[C@@H](C)C(=O)N[C@@H](CCCN=C(N)N)C(=O)N[C@@H](CCCN=C(N)N)C(=O)N[C@H](C(=O)N[C@@H](CCCN=C(N)N)C(=O)O)CSSC[C@H](NC(=O)[C@H](Cc1c[nH]c3ccccc13)NC(=O)[C@@H](N)CCCCN)C(=O)N[C@@H](Cc1ccccc1)C(=O)N[C@@H](CCCN=C(N)N)C(=O)N[C@@H](C(C)C)C(=O)N2 [KWCFRVCYRGICARRCR] |  |  |  |  |  |  |  |  |  |  |  | 0.23 (≈ 0.499 µg/mL) | 0.115 (≈ 0.25 µg/mL) | 0.115 (≈ 0.25 µg/mL) | 3.68 (≈ 7.99 µg/mL) | 1.84 (≈ 3.99 µg/mL) | 0.23 (≈ 0.499 µg/mL) | 0.23 (≈ 0.499 µg/mL) | 0.115 (≈ 0.25 µg/mL) | 0.0276 (≈ 0.06 µg/mL) | MIC [21]: 1.84 µM (≈ 3.99 µg/mL); MIC [22]: 0.919 µM (≈ 2 µg/mL); MIC [23]: 0.23 µM (≈ 0.499 µg/mL); MIC [24]: 0.0574 µM (≈ 0.125 µg/mL)
4 | CC[C@H](C)[C@@H]1NC(=O)CNC(=O)[C@H](CCCN=C(N)N)NC(=O)[C@H](Cc2ccc(O)cc2)NC(=O)[C@@H]2CSSC[C@H](NC1=O)C(=O)N[C@@H](Cc1ccc(O)cc1)C(=O)N[C@@H](CCCN=C(N)N)C(=O)N[C@@H](CCCN=C(N)N)C(=O)N[C@H](C(=O)N[C@@H](CCCN=C(N)N)C(=O)O)CSSC[C@H](NC(=O)[C@H](Cc1c[nH]c3ccccc13)NC(=O)[C@@H](N)CCCN=C(N)N)C(=O)N[C@@H](Cc1ccccc1)C(=O)N[C@@H](CCCN=C(N)N)C(=O)N[C@@H](C(C)C)C(=O)N2 [RWCFRVCYRGICYRRCR] |  |  |  |  |  |  |  |  |  |  |  | 0.109 (≈ 0.249 µg/mL) | 0.0544 (≈ 0.125 µg/mL) | 0.109 (≈ 0.249 µg/mL) | 1.74 (≈ 3.99 µg/mL) | 1.74 (≈ 3.99 µg/mL) | 0.109 (≈ 0.249 µg/mL) | 0.218 (≈ 0.499 µg/mL) | 0.0544 (≈ 0.125 µg/mL) | 0.0544 (≈ 0.125 µg/mL) | MIC [21]: 0.435 µM (≈ 0.998 µg/mL); MIC [22]: 0.218 µM (≈ 0.499 µg/mL); MIC [23]: 0.109 µM (≈ 0.249 µg/mL); MIC [24]: 0.0544 µM (≈ 0.125 µg/mL)

Continued, in another order:

Row | MIC [1] [µM] | MIC [2] [µM] | MIC [3] [µM] | MIC [4] [µM] | MIC [5] [µM] | MIC [6] [µM] | MIC [7] [µM] | MIC [8] [µM] | MIC [9] [µM] | MIC [10] [µM] | MIC [11] [µM] | MIC [12] [µM] | MIC [13] [µM] | MIC [14] [µM] | MIC [15] [µM] | MIC [16] [µM] | MIC [17] [µM] | MIC [18] [µM] | MIC [19] [µM] | MIC [20] [µM] | Structure (SMILES) | also measured
5 | 30 (≈ 39.9 µg/mL) | 30 (≈ 39.9 µg/mL) | 15 (≈ 19.9 µg/mL) | 30 (≈ 39.9 µg/mL) | 30 (≈ 39.9 µg/mL) | 30 (≈ 39.9 µg/mL) | 30 (≈ 39.9 µg/mL) | 30 (≈ 39.9 µg/mL) | 30 (≈ 39.9 µg/mL) | 7.5 (≈ 9.97 µg/mL) | 30 (≈ 39.9 µg/mL) |  |  |  |  |  |  |  |  |  | CC[C@H](C)[C@H](NC(=O)[C@H](CS)NC(=O)[C@H](Cc1cnc[nH]1)NC(=O)[C@H](C)NC(=O)[C@H](C)N)C(=O)N[C@@H](C)C(=O)N[C@@H](CC(C)C)C(=O)N[C@@H](CCCN=C(N)N)C(=O)N[C@@H](CCCCN)C(=O)NCC(=O)N[C@@H](Cc1ccc(O)cc1)C(=O)N[C@@H](CCCCN)C(N)=O [AAHCIALRKGYK] | 
6 |  |  |  |  |  |  |  |  |  |  |  | 7.47 (≈ 16 µg/mL) | 7.47 (≈ 16 µg/mL) | 1.87 (≈ 4 µg/mL) | > 7.47 | 7.47 (≈ 16 µg/mL) | > 7.47 | 7.47 (≈ 16 µg/mL) | 3.74 (≈ 8 µg/mL) | 0.467 (≈ 1 µg/mL) | CC[C@H](C)[C@H](NC(=O)CNC(=O)[C@H](CCCNC(=N)N)NC(=O)[C@H](Cc1ccc(O)cc1)NC(=O)[C@H](C)NC(=O)[C@@H](NC(=O)[C@H](CCCNC(=N)N)NC(=O)[C@H](Cc1ccccc1)NC(=O)[C@H](C)NC(=O)[C@H](Cc1c[nH]c2ccccc12)NC(=O)[C@@H](N)CCCCN)C(C)C)C(=O)N[C@@H](C)C(=O)N[C@@H](Cc1ccc(O)cc1)C(=O)N[C@@H](CCCNC(=N)N)C(=O)N[C@@H](CCCNC(=N)N)C(=O)N[C@@H](C)C(=O)N[C@@H](CCCNC(=N)N)C(N)=O [KWAFRVAYRGIAYRRAR] | MIC [21]: 7.47 µM (≈ 16 µg/mL); MIC [22]: > 7.47 µM; MIC [23]: 0.467 µM (≈ 1 µg/mL); MIC [24]: 1.87 µM (≈ 4 µg/mL)
